Test results: patent US5599793A, “Antithromobotic agents” (Eli Lilly and Company, priority 1995, dated 1997)

Legend:
factor Xa = molecular target: T1, factor Xa (Homo sapiens, UniProt P00742); experiment: Serine protease selectivity, chromogenic substrate (Kass), factor Xa; format: biochemical; conditions: substrate N-Benzoyl-Ile-Glu-Gly-Arg-p-nitroanilide
T1 construct: Human factors X, Xa, IXa, XIa, and XIIa are purchased; purchased Enzyme Research Laboratories, South Bend, Ind
Procedure: (§1) The assay is carried out by mixing 50 μL buffer (0.03M Tris, 0.15M NaCl, pH 7.4) with 25 μL of bovine thrombin or human thrombin solution (0.21 mg/mL of thrombostat bovine thrombin, Parke-Davis, or purified human thrombin, Enzyme Research Laboratories, South Bend, Ind., at about 8 NIH units/mL, in the same buffer) and 25 μL of test compound in a solvent (in 50% aqueous methanol, v:v). The 150 μL of an aqueous solution of the chromogenic substrate (at 0.25 mg/mL) are added and the rates of hydrolysis of the substrate are measured by monitoring the reactions at 405 nm for the release of p-nitroaniline. Standard curves are constructed by plotting free thrombin concentration against hydrolysis rate. The hydrolysis rates observed with test compounds are then converted to "free thrombin" values in the respective assays by use of the standard curves. The bound thrombin (bound to test compound) is calculated by subtracting the amount of free thrombin observed in each assay from the known initial amount of thrombin used in the assay. The amount of free inhibitor in each assay is calculated by subtracting the number of moles of bound thrombin from the number of moles of added inhibitor (test compound).
(§2) Kass is calculated for a range of concentrations of test compounds and the mean value is reported in units of liter per mole.
(§3) By substantially following the procedures described above for human thrombin, and using other human blood coagulation system serine proteases and proteases of the fibrinolytic system with the appropriate chromogenic substrates, identified below, selectivity of the compounds of the present invention with respect to the coagulation factor serine proteases and with respect to the fibrinolytic system serine proteases are evaluated as well as their substantial lack of interference with serine proteases of the fibrinolytic system. Thrombin inhibitors preferably should spare fibrinolysis induced by urokinase, tissue plasminogen activator (t-PA) and streptokinase. This would be important to the therapeutic use of such agents as an adjunct to streptokinase, t-PA or urokinase thrombolytic therapy and to the use of such agents as an endogenous fibrinolysis-sparing (with respect to t-PA and urokinase) antithrombotic agent. In addition to the lack of interference with the amidase activity of the fibrinolytic proteases, such fibrinolytic system sparing can be studied by the use of human plasma clots and their lysis by the respective fibrinolytic plasminogen activators.
Human factors X, Xa, IXa, XIa, and XIIa are purchased from Enzyme Research Laboratories, South Bend, Ind.; human urokinase from Leo Pharmaceuticals, Denmark; and recombinant activated Protein C (aPC) is prepared at Eli Lilly and Co. substantially according to U.S. Pat. No. 4,981,952. Chromogenic substrates: N-Benzoyl-Ile-Glu-Gly-Arg-p-nitroanilide (for factor Xa); N-Cbz-D-Arg-Gly-Arg-p-nitroanilide (for factor IXa assay as the factor Xa substrate); Pyroglutamyl-Pro-Arg-p-nitroanilide (for Factor XIa and for aPC); H-D-Pro-Phe-Arg-p-nitroanilide (for factor XIIa); and Pyroglutamyl-Gly-Arg-p-nitroanilide (for urokinase); are purchased from KabiVitrum, Stockholm, Sweden, or from Midwest Biotech, Fishers, Ind. Bovine trypsin is purchased from Worthington Biochemicals, Freehold, N.J., and human plasma kallikrein from Kabi Vitrum, Stockholm, Sweden. Chromogenic substrate H-D-Pro-Phe-Arg-p-nitroanilide for plasma kallikrein is purchased from Kabi Vitrum, Stockholm, Sweden. N-Benzoyl-Phe-Val-Arg-p-nitroanilide, the substrate for human thrombin and for trypsin, is synthesized according to procedures described above for the compounds of the present invention, using known methods of peptide coupling from commercially available reactants or purchased from Midwest Biotech, Fishers, Ind.

Plasmin = molecular target: T2, Plasmin (Homo sapiens, UniProt P00747); experiment: Serine protease selectivity, chromogenic substrate (Kass), plasmin; format: biochemical; conditions: substrate H-D-Val-Leu-Lys-p-nitroanilide
T2 construct: Human plasmin is purchased; purchased Boehringer Mannheim, Indianapolis, Ind
Procedure: as §1, §2, §3
Human plasmin is purchased from Boehringer Mannheim, Indianapolis, Ind.; nt-PA is purchased as single chain activity reference from American Diagnostica, Greenwich, Conn.; modified-t-PA6 (mt-PA6) is prepared at Eli Lilly and Company by procedure known in the art (See, Burck, et al., J. Biol. Chem., 265, […] (1990). Plasmin chromogenic substrate H-D-Val-Leu-Lys-p-nitroanilide and tissue plasminogen activator (t-PA) substrate H-D-Ile-Pro-Arg-p-nitroanilide are purchased from Kabi Vitrum, Stockholm, Sweden.

[1] = Index of bioavailability (% Relative Activity from plasma TT AUC, oral vs i.v.); format: in vivo; conditions: dose-adjusted AUC of plasma TT, p.o. versus i.v. bolus
Procedure: Plasma thrombin time (TT) and activated partial thromboplastin time (APTT) are measured with a fibrometer. Blood is sampled from a jugular catheter and collected in syringe containing sodium citrate (3.8%, 1 part to 9 parts blood). To measure TT, rat plasma (0.1 mL) is mixed with saline (0.1 mL) and bovine thrombin (0.1 mL, 30 U/mL in TRIS buffer; Parke Davis) at 37° C. For APTT, plasma (0.1 mL) and APTT solution (0.1 mL, Organon Teknika) are incubated for 5 minutes (37° C.) and CaCl2 (0.01 mL, 0.025M) is added to start coagulation. Assays are done in duplicate and averaged.
A measure of bioactivity, plasma thrombin time (TT), served as a substitute for the assay of parent compound on the assumption that increments in TT resulted from thrombin inhibition by parent only. The time course of the effect of the thrombin inhibitor upon TT is determined after i.v. bolus administration to anesthetized rats and after oral treatment of fasted conscious rats. Due to limitations of blood volume and the number of points required to determine the time course from time of treatment to the time when the response returned to pretreatment values, two populations of rats are used. Each sample population represented alternating sequential time points. The average TT over the time course is used to calculate area under the curve (AUC). The index of bioavailability is calculated by the formula shown below and is expressed as percent relative activity.
The area under the curve (AUC) of the plasma TT time course is determined and adjusted for the dose. This index of bioavailability is termed "% Relative Activity" and is calculated as [formula] Compounds
Compound solutions are prepared fresh daily in normal saline and are injected as a bolus or are infused starting 15 minutes before and continuing throughout the experimental perturbation which is 15 minutes in the arteriovenous shunt model and 60 minutes in the FeCl3 model of arterial injury and in the spontaneous thombosis model. Bolus injection volume is 1 mL/kg for i.v., and 5 mL/kg for p.o. and infusion volume is 3 mL/hr.

T2 sequence (P00747 581-810 limits assumed): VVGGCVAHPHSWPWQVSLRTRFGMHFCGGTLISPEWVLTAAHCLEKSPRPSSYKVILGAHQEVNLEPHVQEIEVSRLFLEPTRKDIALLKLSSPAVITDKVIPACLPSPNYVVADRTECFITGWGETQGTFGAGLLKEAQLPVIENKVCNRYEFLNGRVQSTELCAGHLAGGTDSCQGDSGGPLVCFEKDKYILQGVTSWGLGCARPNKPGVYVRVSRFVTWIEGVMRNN
T2 sequence (P00747 97-580 partner limits assumed): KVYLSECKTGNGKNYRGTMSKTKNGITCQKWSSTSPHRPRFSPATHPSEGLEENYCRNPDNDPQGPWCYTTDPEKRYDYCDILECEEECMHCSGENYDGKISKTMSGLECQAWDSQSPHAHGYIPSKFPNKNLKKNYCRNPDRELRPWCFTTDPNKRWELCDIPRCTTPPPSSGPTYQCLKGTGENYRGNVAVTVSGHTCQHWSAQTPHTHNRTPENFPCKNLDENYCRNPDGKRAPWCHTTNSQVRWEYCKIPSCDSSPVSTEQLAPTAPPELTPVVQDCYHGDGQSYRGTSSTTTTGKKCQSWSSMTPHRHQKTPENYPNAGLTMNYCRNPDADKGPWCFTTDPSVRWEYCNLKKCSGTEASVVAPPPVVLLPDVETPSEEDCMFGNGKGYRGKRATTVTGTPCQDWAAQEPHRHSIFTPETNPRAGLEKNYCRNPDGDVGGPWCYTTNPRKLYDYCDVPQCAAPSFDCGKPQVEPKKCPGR
T1 sequence (P00742 235-488 limits assumed): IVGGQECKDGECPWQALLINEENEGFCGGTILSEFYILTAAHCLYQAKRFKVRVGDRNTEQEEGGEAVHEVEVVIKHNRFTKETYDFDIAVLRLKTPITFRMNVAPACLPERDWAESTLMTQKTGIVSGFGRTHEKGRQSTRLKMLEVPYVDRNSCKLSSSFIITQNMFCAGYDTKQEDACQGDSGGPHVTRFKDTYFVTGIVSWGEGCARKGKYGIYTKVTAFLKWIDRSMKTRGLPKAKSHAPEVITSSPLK
T1 sequence (P00742 41-179 partner limits assumed): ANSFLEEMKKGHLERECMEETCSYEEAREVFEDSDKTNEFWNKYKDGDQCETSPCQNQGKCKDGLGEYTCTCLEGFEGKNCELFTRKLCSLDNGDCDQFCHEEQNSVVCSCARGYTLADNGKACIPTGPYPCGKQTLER

| SMILES | Enzyme Kass, Xa (factor Xa) [L/mol × 10^6] | Enzyme Kass, Plasmin (Plasmin) [L/mol × 10^6] | % oral/i.v. activity (Rat) [1] [%] | Enzyme Kass, Xa (factor Xa; HCl) [L/mol × 10^6] | Enzyme Kass, Plasmin (Plasmin; HCl) [L/mol × 10^6] |
| --- | --- | --- | --- | --- | --- |
| C[C@H]1C[C@@H](C(=O)N[C@H](C=O)CCCNC(=N)N)N(C(=O)[C@H]2CCCCN2)C1.Cl.Cl (relative stereo) [Example 1, D-homoprolyl-L-cis-4-methyl-prolyl-L-argininal dihydrochloride] | 1.4 | 0.86 | 47 | – | – |
| CC[C@H]1C[C@@H](C(=O)N[C@H](C=O)CCCNC(=N)N)N(C(=O)[C@H]2CCCCN2)C1.Cl.Cl (relative stereo) [Example 2, D-homoprolyl-L-cis-4-ethyl-prolyl-L-argininal dihydrochloride] | 1.7 | 1.0 | 50 | – | – |
| CCC[C@H]1C[C@@H](C(=O)N[C@H](C=O)CCCNC(=N)N)N(C(=O)[C@H]2CCCCN2)C1.Cl.Cl (relative stereo) [Example 3, D-hPro-Pro(4-cis-n-propyl)-ArgH.2 HCl] | 1.7 | 0.66 | 45 | – | – |
| Cl.Cl.N=C(N)NCCC[C@@H](C=O)NC(=O)[C@@H]1C[C@H](Cc2ccccc2)CN1C(=O)[C@H]1CCCCN1 (relative stereo) [Example 5, D-hPro-Pro(4-cis-benzyl)-ArgH.2 HCl] | 5.8 | 2.1 | 20 | – | – |
| Cl.Cl.N=C(N)NCCC[C@@H](C=O)NC(=O)[C@@H]1CC2CCCCC2N1C(=O)[C@H]1CCCCN1 (relative stereo) [Example 7, N-[(1-D-homoprolyl-cis-octahydro-1H-indol-2(S)-yl)carbonyl]-L-argininal dihydrochloride] | 1.6 | 1.8 | 50 | – | – |
| Cl.Cl.N=C(N)NCCC[C@H](C=O)NC(=O)[C@@H]1C[C@H](Oc2ccccc2)CN1C(=O)[C@H]1CCCCN1 (relative stereo) [Example 8, D-homoprolyl-L-cis-4-phenoxy-L-prolyl-D-argininal dihydrochloride] | 3.0 | 2.9 | 20 | – | – |

More lines, now with the values ahead:

| Enzyme Kass, Xa (factor Xa) [L/mol × 10^6] | Enzyme Kass, Plasmin (Plasmin) [L/mol × 10^6] | % oral/i.v. activity (Rat) [1] [%] | Enzyme Kass, Xa (factor Xa; HCl) [L/mol × 10^6] | Enzyme Kass, Plasmin (Plasmin; HCl) [L/mol × 10^6] | SMILES |
| --- | --- | --- | --- | --- | --- |
| 1.6 | 1.7 | 13 | – | – | Cl.Cl.Cl.N=C(N)NCCC[C@@H](C=O)NC(=O)[C@@H]1C[C@H](Oc2cccnc2)CN1C(=O)[C@H]1CCCCN1 (relative stereo) [Example 9, D-hPro-Pro(4-cis-(3-pyridyloxy))-ArgH.3 HCl] |
| 0.66 | 1.4 | 9 | – | – | Cl.Cl.Cl.N=C(N)NCCC[C@@H](C=O)NC(=O)[C@@H]1C[C@H](Oc2ccc(N)cc2)CN1C(=O)[C@H]1CCCCN1 (relative stereo) [Example 11, D-hPro-Pro(4-cis-(4-NH2-phenoxy))-ArgH.3 HCl] |
| 2.6 | 5.1 | 5 | – | – | Cl.Cl.N=C(N)NCCC[C@@H](C=O)NC(=O)[C@@H]1C[C@H](Oc2ccccc2)CN1C(=O)C1NCCC2CCCCC21 (relative stereo) [Example 15, D-1-Piq-Pro(4-cis-phenoxy)-ArgH.2 HCl] |
| 11.8 | 27.6 | 30 | – | – | CCS(=O)(=O)N[C@@H](C(=O)N1[C@H](C(=O)N[C@H](C=O)CCCNC(=N)N)C[C@@H]2CCCC[C@@H]21)c1ccccc1.Cl (relative stereo) [Example 22, EtSO2 -D-Phg-cis-Ohi-ArgH.HCl] |
| – | – | 6 | 0.75 | 3.67 | Cl.Cl.N=C(N)NCCCC(C=O)NC(=O)C1CC2CCCCC2N1C(=O)C1NCCC2CCCCC21 [Example 20, D-1-cis-Piq-cis-Ohi-ArgH.2 HCl] |
